Results published in article PMC10612255, “Discovery of novel 2,3,4,5-tetrahydrospiro[benzo[c]azepine-1,1’-cyclohexan]-5-ol derivatives as PARP-1 inhibitors” (BMC Chemistry, 2023).
Where two headings read alike, the source gives them in different places.

Legend:
[1] = test system: A549; experiment: MTT assay, anti-proliferative effect on A549 cells; assay type: cell-based, human; conditions: read-out: IC50 A549
Experimental: (§1) A549, OVCAR-3, HCT-116, and MCF-7 were purchased from American type culture collection (ATCC, USA). […] And all cell lines used in the experiment were tested for mycoplasma contamination every two weeks.
(§2) A549, OVCAR-3, HCT-116, and MCF-7 cells were seeded in 96-well plates, and then treated with target compounds for 72 h. Then, 20 µL MTT (5 mg/mL, in PBS) was added into each well, and dissolved in 150 µL DMSO after incubation for 4 h. Finally, the absorbance was measured with microplate reader (490 nm).

[2] = test system: MCF-7; experiment: MTT assay, anti-proliferative effect on MCF-7 cells; assay type: cell-based, human; conditions: read-out: IC50 MCF-7
Experimental: as §1, §2

[3] = test system: OVCAR-3; experiment: MTT assay, anti-proliferative effect on OVCAR-3 cells; assay type: cell-based, human; conditions: read-out: IC50 OVCAR-3
Experimental: as §1, §2

[4] = test system: HCT-116; experiment: MTT assay, anti-proliferative effect on HCT-116 cells; assay type: cell-based, human; conditions: read-out: IC50 HCT-116
Experimental: as §1, §2

Structure (SMILES)	IC50 ([1]; Homo sapiens, A549, 72 h)	IC50 ([2]; Homo sapiens, MCF7, 72 h)	melting point	IC50 ([3]; Homo sapiens, OVCAR-3, 72 h)	IC50 ([4]; Homo sapiens, HCT-116, 72 h)	IC50 ([1]; A549, human lung adenocarcinoma cell line, MTT, 72 h, Mean ± SD)	IC50 ([2]; MCF7, human breast cancer cell line, MTT, 72 h, Mean ± SD)	IC50 ([3]; OVCAR-3, human ovarian cancer cell line, MTT, 72 h, Mean ± SD)	IC50 ([4]; HCT-116, human colon cancer cell line, MTT, 72 h, Mean ± SD)
COc1cccc(-n2cc(CN3CCC(O)c4ccccc4C34CCCCC4)nn2)c1 (centres unmarked) [Compound 11 L, 2-((1-(3-methoxyphenyl)-1 H-1,2,3-triazol-4-yl)methyl)-2,3,4,5-tetrahydrospiro[benzo[c]azepine-1,1’-cyclohexan]-5-ol]	11.1 ± 2.98 µM	8.54 ± 1.65 µM	172.3 to 174.1 °C	6.14 ± 0.56 µM	11.7 ± 4.88 µM				
OC1CCN(Cc2cn(-c3cccc(Cl)c3)nn2)C2(CCCCC2)c2ccccc21 (centres unmarked) [Compound 11i, 2-((1-(3-chlorophenyl)-1 H-1,2,3-triazol-4-yl)methyl)-2,3,4,5-tetrahydrospiro[benzo[c]azepine-1,1’-cyclohexan]-5-ol]	13.6 ± 2.47 µM	6.34 ± 3.17 µM	168.1 to 168.8 °C	4.28 ± 0.77 µM	10.8 ± 2.95 µM				
OC1CCN(Cc2cn(-c3ccc(F)cc3)nn2)C2(CCCCC2)c2ccccc21 (centres unmarked) [Compound 11d, 2-((1-(4-fluorophenyl)-1 H-1,2,3-triazol-4-yl)methyl)-2,3,4,5-tetrahydrospiro[benzo[c]azepine-1,1’-cyclohexan]-5-ol]	4.88 ± 1.18 µM	16.2 ± 3.88 µM	166.2 to 166.8 °C	17.1 ± 1.5 µM	8.76 ± 3.11 µM				
OC1CCN(Cc2cn(-c3ccc(Br)cc3)nn2)C2(CCCCC2)c2ccccc21 (centres unmarked) [Compound 11p, 2-((1-(4-bromophenyl)-1 H-1,2,3-triazol-4-yl)methyl)-2,3,4,5-tetrahydrospiro[benzo[c]azepine-1,1’-cyclohexan]-5-ol]	9.58 ± 2.53 µM	16.4 ± 4.37 µM		12.7 ± 1.43 µM	9.93 ± 3.01 µM				
OC1CCN(Cc2cn(-c3cccc(Br)c3)nn2)C2(CCCCC2)c2ccccc21 (centres unmarked) [Compound 11o, 2-((1-(3-bromophenyl)-1 H-1,2,3-triazol-4-yl)methyl)-2,3,4,5-tetrahydrospiro[benzo[c]azepine-1,1’-cyclohexan]-5-ol]	7.4 ± 1.75 µM	7.99 ± 2.53 µM	169.3 to 170.2 °C	4.2 ± 0.48 µM	10.8 ± 2.11 µM				
OC1CCN(Cc2cn(-c3cccc(F)c3)nn2)C2(CCCCC2)c2ccccc21 (centres unmarked) [Compound 11c, 2-((1-(3-fluorophenyl)-1 H-1,2,3-triazol-4-yl)methyl)-2,3,4,5-tetrahydrospiro[benzo[c]azepine-1,1’-cyclohexan]-5-ol]	4.29 ± 0.56 µM	7.6 ± 1.96 µM		7.65 ± 2.56 µM	12.6 ± 2.43 µM				
COc1ccccc1-n1cc(CN2CCC(O)c3ccccc3C23CCCCC3)nn1 (centres unmarked) [Compound 11k, 2-((1-(2-methoxyphenyl)-1 H-1,2,3-triazol-4-yl)methyl)-2,3,4,5-tetrahydrospiro[benzo[c]azepine-1,1’-cyclohexan]-5-ol]	12.6 ± 5.91 µM	7.54 ± 1.05 µM		10.5 ± 0.09 µM	13.1 ± 2.03 µM				
N#Cc1ccc(-n2cc(CN3CCC(O)c4ccccc4C34CCCCC4)nn2)cc1 (centres unmarked) [Compound 11v, 4-(4-((5-hydroxy-4,5-dihydrospiro[benzo[c]azepine-1,1’-cyclohexan]-2(3 H)-yl)methyl)-1 H-1,2,3-triazol-1-yl)benzonitrile]	> 50 µM	> 50 µM		> 50 µM	> 50 µM				
N#Cc1cccc(-n2cc(CN3CCC(O)c4ccccc4C34CCCCC4)nn2)c1 (centres unmarked) [Compound 11u, 3-(4-((5-hydroxy-4,5-dihydrospiro[benzo[c]azepine-1,1’-cyclohexan]-2(3 H)-yl)methyl)-1 H-1,2,3-triazol-1-yl)benzonitrile]	> 50 µM	> 50 µM		> 50 µM	> 50 µM				
Cc1cccc(-n2cc(CN3CCC(O)c4ccccc4C34CCCCC4)nn2)c1 (centres unmarked) [Compound 11f, 2-((1-(m-tolyl)-1 H-1,2,3-triazol-4-yl)methyl)-2,3,4,5-tetrahydrospiro[benzo[c]azepine-1,1’-cyclohexan]-5-ol]	11.8 ± 1.07 µM	8.94 ± 3.17 µM	167.3 to 168.2 °C	21.7 ± 8.94 µM	12.2 ± 2.01 µM				
OC1CCN(Cc2cn(-c3ccccc3)nn2)C2(CCCCC2)c2ccccc21 (centres unmarked) [Compound 11a, 2-((1-phenyl-1 H-1,2,3-triazol-4-yl)methyl)-2,3,4,5-tetrahydrospiro[benzo[c]azepine-1,1’-cyclohexan]-5-ol]	9.5 ± 1.23 µM	15.5 ± 2.53 µM		13.6 ± 2.45 µM	10.3 ± 2.74 µM				
OC1CCN(Cc2cn(-c3ccc(Cl)cc3)nn2)C2(CCCCC2)c2ccccc21 (centres unmarked) [Compound 11j, 2-((1-(4-chlorophenyl)-1 H-1,2,3-triazol-4-yl)methyl)-2,3,4,5-tetrahydrospiro[benzo[c]azepine-1,1’-cyclohexan]-5-ol]	18.8 ± 2.67 µM	5.27 ± 0.92 µM	165.6 to 166.3 °C	5.79 ± 1.25 µM	17.9 ± 1.95 µM				
COc1ccc(-n2cc(CN3CCC(O)c4ccccc4C34CCCCC4)nn2)cc1 (centres unmarked) [Compound 11 m, 2-((1-(4-methoxyphenyl)-1 H-1,2,3-triazol-4-yl)methyl)-2,3,4,5-tetrahydrospiro[benzo[c]azepine-1,1’-cyclohexan]-5-ol]	8.7 ± 4.1 µM	9.33 ± 1.33 µM	170.2 to 172.3 °C	6 ± 1.83 µM	5.87 ± 0.54 µM				
N#Cc1ccccc1-n1cc(CN2CCC(O)c3ccccc3C23CCCCC3)nn1 (centres unmarked) [Compound 11t, 2-(4-((5-hydroxy-4,5-dihydrospiro[benzo[c]azepine-1,1’-cyclohexan]-2(3 H)-yl)methyl)-1 H-1,2,3-triazol-1-yl)benzonitrile]	> 50 µM	> 50 µM		> 50 µM	> 50 µM				
OC1CCN(Cc2cn(-c3ccccc3Br)nn2)C2(CCCCC2)c2ccccc21 (centres unmarked) [Compound 11n, 2-((1-(2-bromophenyl)-1 H-1,2,3-triazol-4-yl)methyl)-2,3,4,5-tetrahydrospiro[benzo[c]azepine-1,1’-cyclohexan]-5-ol]	17.9 ± 3.94 µM	10.6 ± 0.85 µM	168.2 to 169.8 °C	12.6 ± 1.55 µM	15.7 ± 1.98 µM				
Cc1ccccc1-n1cc(CN2CCC(O)c3ccccc3C23CCCCC3)nn1 (centres unmarked) [Compound 11e, 2-((1-(o-tolyl)-1 H-1,2,3-triazol-4-yl)methyl)-2,3,4,5-tetrahydrospiro[benzo[c]azepine-1,1’-cyclohexan]-5-ol]	15.6 ± 2.8 µM	9.33 ± 4.08 µM	165.2 to 166 °C	7.95 ± 3.35 µM	9.22 ± 4.57 µM				
OC1CCN(Cc2cn(-c3ccccc3Cl)nn2)C2(CCCCC2)c2ccccc21 (centres unmarked) [Compound 11 h, 2-((1-(2-chlorophenyl)-1 H-1,2,3-triazol-4-yl)methyl)-2,3,4,5-tetrahydrospiro[benzo[c]azepine-1,1’-cyclohexan]-5-ol]	15.1 ± 1.18 µM	6.5 ± 1.78 µM	167.9 to 168.3 °C	4.44 ± 0.1 µM	8.97 ± 3.16 µM				
Oc1cccc(-n2cc(CN3CCC(O)c4ccccc4C34CCCCC4)nn2)c1 (centres unmarked) [Compound 11r, 2-((1-(3-hydroxyphenyl)-1 H-1,2,3-triazol-4-yl)methyl)-2,3,4,5-tetrahydrospiro[benzo[c]azepine-1,1’-cyclohexan]-5-ol]	11.9 ± 5.74 µM	> 50 µM	157.4 to 158.6 °C	3.9 ± 0.26 µM	12.1 ± 0.98 µM				
Cc1ccc(-n2cc(CN3CCC(O)c4ccccc4C34CCCCC4)nn2)cc1 (centres unmarked) [Compound 11 g, 2-((1-(p-tolyl)-1 H-1,2,3-triazol-4-yl)methyl)-2,3,4,5-tetrahydrospiro[benzo[c]azepine-1,1’-cyclohexan]-5-ol]	6.84 ± 1.68 µM	7.96 ± 1.1 µM	164.3 to 165.2 °C	4.64 ± 0.99 µM	9.81 ± 2.89 µM				
CNCc1ccc(-c2[nH]c3cc(F)cc4c3c2CCNC4=O)cc1 [Rucaparib, reference compound]						4.91 ± 0.11 µM	13 ± 0.28 µM	2.41 ± 0.13 µM	13.5 ± 0.17 µM
